The values that follow come from patent US20210329919A9, “SYNTHESIS AND ANTI-CANCER ACTIVITY OF COMMUNESIN ALKALOIDS” (Massachusetts Institute of Technology, priority 2019, published 2021).

The subject of one series is A549 (lung carcinoma). The series can be described thus: Cell viability assay (Cell Titer-Glo), A549. It counts as cell-based, human. The note with it: read-out: IC50 (μM) A549. As to the method: (§1) Cells were grown in media supplemented with fetal bovine serum (FBS) and antibiotics ([…] and 100 U/mL streptomycin). Specifically, experiments were performed using the following cell lines and media compositions: HeLa (cervical adenocarcimona) and A549 (lung carcinoma) were grown in RPMI-1640+10% FBS; HCT-116 (colorectal carcinoma) was grown in DMEM+10% FBS; DU-145 (prostate carcinoma) and MCF7 (breast adenocarcinoma) were grown in EMEM+10% FBS. Cells were incubated at 37° C. in a 5% CO2, 95% humidity atmosphere.
(§2) Cells were plated at 2000 cells/well into duplicate assay plates in 50 L media into 384-well white, opaque, tissue-culture treated plates and allowed to adhere overnight at 37° C./5% CO2. Compounds were solubilized in DMSO as 1000× stocks and 100 nl was pin-transferred to cells (V&P pin tool mounted on Tecan Freedom Evo MCA96). Compounds were tested in 10-pt, 2-fold dilution with concentrations tested between 1 nM-20 μM for most compounds, except where indicated. DMSO (32 wells of 384-wells) was used as vehicle control. After 72 hours of incubation at 37° C./5% CO2, 10 L Cell Titer-Glo (Promega) was added to each well and plates were incubated at room temperature for 10 minutes before the luminescence was read on a Tecan M1000 plate reader. Cell Titer-Glo measures ATP levels of cells as a surrogate for cell viability. All compound-treated wells was normalized to the DMSO control averages and expressed as a % of DMSO viability. IC50 values were determined from the dose curves using Spotfire (Perkin Elmer).

In series [1] the test system is DU-145 (prostate carcinoma). The series can be described thus: Cell viability assay (Cell Titer-Glo), DU-145. It counts as cell-based, human. The note with it: read-out: IC50 (μM) DU-145. The protocol:
as §1, §2
In general terms: Cellular ATP, detected with luciferase, serves as a proxy for viable cell number.

In series [2] the test system is HCT-116 (colorectal carcinoma). The series can be described thus: Cell viability assay (Cell Titer-Glo), HCT-116. The note with it: read-out: IC50 (μM) HCT-116. It counts as cell-based, human. The protocol:
as §1, §2

In series [3] the test system is HeLa (cervical adenocarcinoma). The series can be described thus: Cell viability assay (Cell Titer-Glo), HeLa. It counts as cell-based, human. The note with it: read-out: IC50 (μM) HeLa. As to the method:
as §1, §2

Series [4] has as its system MCF7 (breast adenocarcinoma). The series can be described thus: Cell viability assay (Cell Titer-Glo), MCF7. It counts as cell-based, human. The note with it: read-out: IC50 (μM) MCF7. The protocol: as §1, §2
For series [5], the system named is A549, DU-145, HCT116, HeLa and MCF7 cell lines. The series can be described thus: Cytotoxicity across all five cancer cell lines (text summary of Table 1). Conditions: for decrease in potency/activity relative to (−)-communesin B (4): N8-H or N8-formyl vs N8-methyl. The protocol:
as §1, §2
With samples of all known communesin alkaloids and a selection of unnatural derivatives in hand, the anticancer activity for this entire class of natural products was explored. While previous isolation reports have evaluated the activity of selected natural communesins, no comprehensive comparison of the entire class of alkaloids across multiple cell lines has been performed.

Series [6] relates to P-388 lymphocytic leukemia cells. The note with it: cultured mouse P-388 lymphocytic leukemia cells; cited from earlier work.
Series [7] concerns third instar larvae of silkworms. Conditions: cited from earlier work; for insecticidal activity compared with communesin B (4): silkworms.
In the next series the test system is vasculogenesis. Conditions: in vivo; cited from earlier work.
In series [8] the test system is human leukemia cell lines. Conditions: array of human leukemia cell lines; cited from earlier work.
Setting [9] is: Homo sapiens, A549, cytotoxicity after 72 h of compound treatment, Cell Titer-Glo (ATP levels).
[10] abbreviates: Homo sapiens, DU-145, cytotoxicity after 72 h of compound treatment, Cell Titer-Glo (ATP levels).
Setting [11] is: Homo sapiens, HCT-116, cytotoxicity after 72 h of compound treatment, Cell Titer-Glo (ATP levels).
[12] abbreviates: Homo sapiens, cytotoxicity after 72 h of compound treatment, Cell Titer-Glo (ATP levels).
Setting [13] is: Homo sapiens, MCF7, cytotoxicity after 72 h of compound treatment, Cell Titer-Glo (ATP levels).
[14] abbreviates: cytotoxicity after 72 h of compound treatment, Cell Titer-Glo (ATP levels).

Converted amounts (≈) assume the structure as drawn. Where two headings read alike, the source gives them in different places. Bounds are passed on as bounds.

Take `C/C=C/C=C/C(=O)N1CC[C@@]23c4ccccc4N[C@@H]4N(C=O)c5cccc6c5[C@@]42CCN([C@@H]13)[C@@H]6[C@H]1OC1(C)C` [(+)-6, (+)-communesin D]: the half-inhibitory concentration (IC50) (as a rule, the concentration that gives 50% inhibition) with A549 (lung carcinoma) (Homo sapiens, A549, 72 h) is above 125 µM; in [1] (Homo sapiens, DU-145, 72 h) it was 84 µM; in series [2] (Homo sapiens, HCT-116, 72 h), 111 µM; in series [3] (Homo sapiens, 72 h), 63 µM; in [4] (Homo sapiens, MCF7, 72 h), above 125 µM. Moreover, in [5], the “decrease in potency/activity relative to (−)-communesin B (4)” value is recorded as “two- to threefold decrease in activity”.

On to `CC(=O)N1CC[C@@]23c4ccccc4N[C@@H]4N(C=O)c5cccc6c5[C@@]42CCN([C@@H]13)[C@@H]6[C@H]1OC1(C)C` [(+)-43, (+)-N8-formyl communesin E], for which the IC50 with A549 (lung carcinoma) (setting [9]) was above 250 µM; in series [1] (setting [10]), above 250 µM; in series [2] (setting [11]), above 250 µM; in series [3] (setting [12]), above 125 µM; in [4] (setting [13]) it was above 250 µM. For the same compound, the “cytotoxic potency across all cell lines (in words)” value in series [5] was “principally inactive”.

In the case of `CC(=O)N1CC[C@@]23c4ccccc4N[C@@H]4N(C)c5cccc6c5[C@@]42CCN([C@@H]6C=C(C)C)[C@@H]13` [(−)-1, (−)-communesin F], the half-maximal inhibitory concentration (IC50) was 117 µM in the series on A549 (lung carcinoma) (setting [14]); 119 µM in [1] (setting [14]); above 125 µM in series [2] (setting [14]); 115 µM in [3] (setting [14]); 84 µM in series [4] (setting [14]).

`CC(=O)N1CC[C@@]23c4ccccc4N[C@@H]4N(C)c5cccc6c5[C@@]42CCN([C@@H]13)[C@@H]6[C@H]1OC1(C)C` [(−)-2, (−)-communesin A]: the IC50 with A549 (lung carcinoma) (setting [9]) is above 125 µM; in series [1] (setting [10]), above 250 µM; in series [2] (setting [11]), above 250 µM; in series [3] (setting [12]), above 125 µM; in [4] (setting [13]) it was above 250 µM. Also, the “cytotoxic potency across all cell lines (in words)” value in series [5] was “principally inactive”.

Turning to `CC(=O)N1CC[C@@]23c4ccccc4N[C@@H]4Nc5cccc6c5[C@@]42CCN([C@@H]13)[C@@H]6[C@H]1OC1(C)C` [(−)-3, (−)-communesin E], the IC50 (in the series on A549 (lung carcinoma) (setting [9]); in series [1] (setting [10]); in series [2] (setting [11]); in series [3] (setting [12]); in [4] (setting [13])) was above 500 µM throughout. For the same compound, in series [5], the “cytotoxic potency across all cell lines (in words)” value was “principally inactive”.

For the compound `C/C=C/C=C/C(=O)N1CC[C@@]23c4ccccc4N[C@@H]4N(C)c5cccc6c5[C@@]42CCN([C@@H]13)[C@@H]6[C@H]1OC1(C)C` [(−)-4, (−)-communesin B], the 50% inhibitory concentration (IC50) in the series with A549 (lung carcinoma) (setting [9]) was found to be 56 µM; in series [1] (setting [10]), 45 µM; in series [2] (setting [11]) it was 60 µM; in series [3] (setting [12]) it was 47 µM; in [4] (setting [13]) it was 34 µM.

As for `C/C=C/C=C/C(=O)N1CC[C@@]23c4ccccc4N[C@@H]4Nc5cccc6c5[C@@]42CCN([C@@H]13)[C@@H]6[C@H]1OC1(C)C` [(−)-5, (−)-communesin C], the concentration for half-maximal inhibition (IC50) in the series on A549 (lung carcinoma) (Homo sapiens, A549, 72 h) amounted to 115 µM; in series [1] (Homo sapiens, DU-145, 72 h), 82 µM; in series [2] (Homo sapiens, HCT-116, 72 h), 106 µM; in series [3] (Homo sapiens, 72 h), 94 µM; in series [4] (Homo sapiens, MCF7, 72 h), 65 µM. Moreover, the “decrease in potency/activity relative to (−)-communesin B (4)” value in series [5] is listed as “two- to threefold decrease in activity”.

On to `CCC(=O)N1CC[C@]23c4ccccc4N[C@H]4N(C)c5cccc6c5[C@]42CCN([C@H]6[C@@H]2OC2(C)C)[C@H]13` [(−)-7, (−)-communesin G], for which the IC50 in the series on A549 (lung carcinoma) (setting [14]) is above 125 µM; in series [1] (setting [14]), above 125 µM; in series [2] (setting [14]), above 125 µM; in series [3] (setting [14]), above 125 µM; in series [4] (setting [14]), above 250 µM. For the same compound, the “cytotoxic potency across all cell lines (in words)” value in series [5] was “principally inactive”.

Regarding `CCCC(=O)N1CC[C@]23c4ccccc4N[C@H]4N(C)c5cccc6c5[C@]42CCN([C@H]6[C@@H]2OC2(C)C)[C@H]13` [(−)-8, (−)-communesin H], the 50% inhibitory concentration (IC50) in the series with A549 (lung carcinoma) (setting [14]) was above 125 µM; in [1] (setting [14]), above 125 µM; in [2] (setting [14]) it was 109 µM; in series [3] (setting [14]) it was 82 µM; in [4] (setting [14]) it was 90 µM.

`CCC[C@H](O)CC(=O)N1CC[C@@]23c4ccccc4N[C@@H]4N(C)c5cccc6c5[C@@]42CCN([C@@H]13)[C@@H]6[C@H]1OC1(C)C` [(−)-10, (−)-communesin I]: the IC50 in the series with A549 (lung carcinoma) (setting [14]) is 120 µM; in [1] (setting [14]), above 125 µM; in series [2] (setting [14]), above 125 µM; in series [3] (setting [14]), 120 µM; in series [4] (setting [14]) it was 90 µM.

With `C/C=C/C=C/C(=O)N1CC[C@@]23c4ccccc4N[C@@H]4N(C)c5cccc6c5[C@@]42CCN([C@@H]13)[C@@H]6[C@H]1OC1(C)C` [(−)-communesin B (4)], in series [5], the “cytotoxic potency across all cell lines (in words)” value is on record as “highest potency of all the natural products tested”.

In the case of `C/C=C/C=C/C(=O)N1CC[C@@]23c4ccccc4N[C@@H]4N(C)c5cccc6c5[C@@]42CCN([C@@H]13)[C@@H]6[C@H]1OC1(C)C` [(−)-communesin B], the “cytotoxic potency across all cell lines (in words)” value in series [5] (A549, DU-145, HCT116, HeLa, MCF7) is listed as “most potent natural isolate”.

For `CC(=O)N1CC[C@@]23c4ccccc4N[C@@H]4N(C)c5cccc6c5[C@@]42CCN([C@@H]13)[C@@H]6[C@H]1OC1(C)C` [Communesin A (2), (−)-communesin A], in [6], the “ED50, cytotoxicity” value is 3.5 µg/mL (≈ 7.67 µM). Further, the “insecticidal activity compared with communesin B (4)” value in series [7] is on record as “lower insecticidal activities”. In the series with vasculogenesis, the vasculogenetic activity entry is “moderate vasculogenetic activity”.

On to `C/C=C/C=C/C(=O)N1CC[C@@]23c4ccccc4N[C@@H]4N(C)c5cccc6c5[C@@]42CCN([C@@H]13)[C@@H]6[C@H]1OC1(C)C` [Communesin B (4), communesin B], for which the “ED50, cytotoxicity” value in [6] is 0.45 µg/mL (≈ 0.885 µM). Moreover, in series [7] (third instar larvae of silkworms, oral administration), the “LD50, insecticidal” value is listed as 5 μg/g of diet.

With `CC(=O)N1CC[C@@]23c4ccccc4N[C@@H]4N(C)c5cccc6c5[C@@]42CCN([C@@H]6C=C(C)C)[C@@H]13` [Communesin F (1), (−)-communesin F], the “insecticidal activity compared with communesin B (4)” value in series [7] is “lower insecticidal activities”.

On to `C/C=C/C=C/C(=O)N1CC[C@@]23c4ccccc4N[C@@H]4Nc5cccc6c5[C@@]42CCN([C@@H]13)[C@@H]6[C@H]1OC1(C)C` [communesin C (5), (−)-communesin C], for which the anti-proliferative activity entry in [8] is reported as “moderate anti-proliferative activity”.

Consider `C/C=C/C=C/C(=O)N1CC[C@@]23c4ccccc4N[C@@H]4N(C=O)c5cccc6c5[C@@]42CCN([C@@H]13)[C@@H]6[C@H]1OC1(C)C` [communesin D (6), (+)-communesin D], for which the anti-proliferative activity entry in series [8] was “moderate anti-proliferative activity”. For the same compound, the “insecticidal activity compared with communesin B (4)” value in series [7] is recorded as “lower insecticidal activities”.
